Where “and” joins values, the source holds several entries; their conditions need not be identical. Equal entries are not always repeated. Where two headings read alike, the source gives them in different places.

One experiment deals with T1, human A1AR (Homo sapiens, UniProt P30542).
T1 construct: expressed in transfected cells; host or cells: CHO or HEK293 cells (membrane preparations)
T1 sequence (P30542 1-326): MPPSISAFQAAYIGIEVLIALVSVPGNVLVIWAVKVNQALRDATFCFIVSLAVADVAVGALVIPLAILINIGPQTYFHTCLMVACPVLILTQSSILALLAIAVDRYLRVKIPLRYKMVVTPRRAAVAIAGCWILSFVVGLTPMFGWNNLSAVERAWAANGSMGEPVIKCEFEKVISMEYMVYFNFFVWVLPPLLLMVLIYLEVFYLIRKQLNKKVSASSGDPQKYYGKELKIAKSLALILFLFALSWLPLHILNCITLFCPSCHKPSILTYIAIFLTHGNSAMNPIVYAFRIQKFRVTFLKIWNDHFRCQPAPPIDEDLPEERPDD
Briefly: Radioligand binding assay, antagonist [3H]DPCPX (0.5 nM), membranes of CHO or HEK293 cells. The settings on record: for inhibition at 300 µM: read-out: % inhibition at 300 µM A1. As for the experimental part: Binding parameters were calculated using Prism 6 software (GraphPAD, San Diego, CA, USA). IC50 values obtained from competition curves were converted to Ki values using the Cheng-Prusoff equation. Data were expressed as mean ± standard error. […] Each Ki value was determined from at least three independent experiments.
Supplementary Table S2. […] Radioligand binding
(§1) assays were performed using membranes of mammalian cells overexpressing one AR subtype.

In the next experiment the target is T2, human A3AR (Homo sapiens, UniProt P0DMS8).
T2 construct: expressed in transfected cells; host or cells: CHO or HEK293 cells (membrane preparations)
T2 sequence (P0DMS8 1-318): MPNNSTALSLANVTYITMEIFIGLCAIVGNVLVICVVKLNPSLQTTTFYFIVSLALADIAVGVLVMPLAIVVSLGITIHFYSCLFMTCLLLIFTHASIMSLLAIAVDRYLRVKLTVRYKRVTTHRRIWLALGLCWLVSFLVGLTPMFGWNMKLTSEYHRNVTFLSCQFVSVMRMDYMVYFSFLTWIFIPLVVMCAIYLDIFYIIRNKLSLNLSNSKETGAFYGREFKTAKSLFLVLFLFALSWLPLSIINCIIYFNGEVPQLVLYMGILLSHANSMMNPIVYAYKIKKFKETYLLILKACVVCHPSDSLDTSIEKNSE
Briefly: Radioligand binding assay, agonist [125I]AB-MECA (0.2 nM), membranes of CHO or HEK293 cells. Conditions: for Ki: mean ± standard error, n=3, read-out: Ki A3; for inhibition at 300 µM: read-out: % inhibition at 300 µM A3, 300 µM, mean ± standard error, n=3. As for the experimental part: (§2) Radioligand binding assays for compounds 25–36 were performed as previously described[61] using membrane preparations from Chinese hamster ovary (CHO) or human embryonic kidney (HEK)293 cells stably expressing the human A1, A2A or A3AR. The following radioligands: antagonist [^3H]DPCPX (0.5 nM); antagonist [^3H]ZM241385 (1.0 nM); and agonist [^125I]AB-MECA (0.2 nM) were used for A1, A2A, and A3ARs, respectively. Binding parameters were calculated using Prism 6 software (GraphPAD, San Diego, CA, USA). IC50 values obtained from competition curves were converted to Ki values using the Cheng-Prusoff equation. Data were expressed as mean ± standard error. The radioligand binding assays for compounds 18, 20, 21, and 23 were performed as previously described. Each Ki value was determined from at least three independent experiments.
(§3) Supplementary Table S2. Experimental data for compounds 25-36. Radioligand binding
as §1
(§4) aData are expressed as mean ± standard error resulting from three independent experiments.

Experiment [1] concerns the target T3, human A2AAR (Homo sapiens, UniProt P29274).
T3 construct: expressed in transfected cells; host or cells: CHO cells
The experiment is described as follows: Radioligand binding assay, antagonist [3H]ZM241385 (1.0 nM), membranes of CHO or HEK293 cells, compounds 25-36. The settings on record: for inhibition at 300 µM: read-out: % inhibition at 300 µM A2A (displacement of radioligand binding); for inhibition at 300 µM / Ki: [3H]ZM241385, mean ± standard error, n=3; for Ki: read-out: Ki A2A; for fold increase of affinity compared to compound 32: experimentally determined, A2AAR. How it is done:
as §2, §3, §1, §4

Experiment [2] deals with T3, human A2AAR. The settings on record: 95% confidence interval in brackets, cited from earlier work.
The target in experiment [3] is T3, human A2AAR. The experiment is described as follows: Functional assay: inhibition of NECA-induced cAMP production (GloSensor) in CHO cells. The class given is cell-based. Conditions: against 1 µM NECA, CHO cells expressing human A2AAR.
Method: CHO cells, stably transfected with the human A2AAR and transiently with firefly luciferase biosensor, were grown adherently and maintained in Dulbecco’s Modified Eagles Medium with nutrient mixture F12 (DMEM/F12 with phenol red), supplemented with 10% FBS (Fetal Bovine Serum), 100 U/mL penicillin, 100 µg/mL streptomycin, 2.5µg/mL amphotericin, 1 mM Sodium pyruvate, and 0.1 mg/mL Geneticin (G418) at 37 °C, and aerated with 5% CO2: 95% O2. Cells were harvested in CO2 independent media and counted in a Neobauer chamber. The desiderate cell number was incubated in equilibration medium containing a 3% v/v GloSensor cAMP reagent stock solution, 10% FBS and 87% CO2 independent medium. After 2 hours of incubation cells were dispensed in wells of 384 well plate and when a steady-state basal signal was obtained, different concentrations of antagonists were added. After 10 min, 1 µM of 5′-N-ethylcarboxamidoadenosine (NECA), the reference agonist, was injected. Responses were expressed as percentage of the Maximal Relative Luminescence Units (RLU). Inhibition-response curves were fitted by a non-linear regression using a Prism 4.0 program (GraphPad Software, San Diego, CA, USA).
Experiment [4] addresses T3, human A2AAR. The experiment is described as follows: Radioligand binding assay at the A2AAR for adenine derivatives 1-23 (displacement of [3H]NECA, CHO cells). As for the experimental part: as §2
Supplementary Table S1. Binding data for compounds 1-23. […]
aKi value from Lambertucci et al.1 bKi value from Volpini et al.2 cDisplacement of specific [3H]NECA binding at human A2AAR expressed in CHO cells measured in this work.
Data is expressed as geometric means with 95% confidence limits (n=3-6). […]

[5] abbreviates: [3H]DPCPX, mean ± standard error, n=3.
Where [6] appears, read: [3H]DPCPX, mean ± standard error, n=3, read-out: Ki A1.
Where [7] appears, read: displacement of specific [3H]NECA binding at human A2AAR expressed in CHO cells, measured in this work.

T3 sequence (P29274 whole entry): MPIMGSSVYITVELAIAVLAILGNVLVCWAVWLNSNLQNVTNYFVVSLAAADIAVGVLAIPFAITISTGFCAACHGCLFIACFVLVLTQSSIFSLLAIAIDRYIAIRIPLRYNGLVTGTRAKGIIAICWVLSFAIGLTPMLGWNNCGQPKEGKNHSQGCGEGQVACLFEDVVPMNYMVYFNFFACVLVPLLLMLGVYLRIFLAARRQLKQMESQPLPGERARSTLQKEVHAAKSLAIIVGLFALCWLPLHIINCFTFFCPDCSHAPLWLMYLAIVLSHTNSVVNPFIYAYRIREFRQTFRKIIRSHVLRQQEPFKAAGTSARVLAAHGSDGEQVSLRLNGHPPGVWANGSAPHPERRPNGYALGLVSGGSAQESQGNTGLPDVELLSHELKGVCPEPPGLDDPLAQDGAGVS

As for `Nc1cccn2ncnc12` [Compound 28, [1,2,4]triazolo[1,5-a]pyridin-8-amine], the inhibition at 300 µM at human A1AR (setting [5]) is 22 ± 6%; at human A2AAR [1] it was 17%. The inhibition constant (Ki) on human A3AR worked out at 153 ± 31 µM.

`Nc1ncnc2c1nc(Br)n2CCO` [Compound 6]: the inhibition constant Ki on human A2AAR [2] (ref Lambertucci et al. [22]) is 0.62 µM.

With `CC(=O)Nc1nc2cc(C)ccc2s1` [Compound 34], the Ki on human A1AR (setting [6]) is 8.4 ± 0.9 µM; at human A3AR, 1.1 ± 0.2 µM; on human A2AAR [1], 11.6 ± 1.2 µM. Further, the “fold increase of affinity compared to compound 32” value (“fold increase of affinity” below) at human A2AAR [1] was found to be 7 fold.

Regarding `CCn1cnc2c(N)ncnc21` [Compound 9], on human A2AAR [2] (ref Lambertucci et al. [22]), the Ki was 2.2 µM.

On to `Nc1ncnc2c1ncn2CCO` [Compound 10], for which the Ki on human A2AAR [2] (ref Lambertucci et al. [22]) is 11 µM.

As for `CCn1c(Br)nc2c(N)ncnc21` [Compound 5], the “inhibition of A2AAR mediated cAMP production” value against human A2AAR [3] was “close to completely inhibit the agonist effect of 1 µM NECA”. Moreover, the inhibition constant (Ki) at human A2AAR [2] (ref Lambertucci et al. [22]) is 0.052 µM.

With `CC(=O)Nc1nc2ccc(C)cc2s1` [Compound 35], the Ki at human A1AR (setting [6]) stood at 17.8 ± 1.7 µM; on human A3AR, 2.9 ± 0.4 µM; at human A2AAR [1], 48.6 ± 2.6 µM. Also, the “fold increase of affinity” value on human A2AAR [1] is “two-fold increase of affinity”.

Consider `COc1cccc2sc(NC(C)=O)nc12` [Compound 36], for which the inhibition constant Ki at human A1AR (setting [6]) is 7.8 ± 0.5 µM; on human A3AR, 1 ± 0.2 µM; on human A2AAR [1], 1.8 ± 0.05 µM. On human A2AAR [1] (corresponding to the 44-fold increase), the “experimental increase of affinity compared to compound 32, as free energy” value is given as 2.3 kcal/mol. Further, at human A2AAR [1], the “fold increase of affinity” value is 44 fold.

Consider `Nc1ncnc2c1ncn2C1CCCC1` [Compound 15], for which the Ki on human A2AAR [2] (ref Lambertucci et al. [22]) is 1.8 µM.

On to `CC(C)Cn1c(Br)nc2c(N)ncnc21` [Compound 8], for which the inhibitory constant (Ki) on human A2AAR [2] (ref Lambertucci et al. [22]) was 6 µM.

`CC(C)c1nc2c(N)cccn2n1` [Compound 31]: the Ki on human A1AR came out at 50.1 ± 22.6 µM; on human A3AR, 102 ± 32 µM; at human A2AAR [1] it was 223 µM.

On to `CCCn1c(Br)nc2c(N)ncnc21` [Compound 7], for which the Ki on human A2AAR [2] (ref Lambertucci et al. [22]) is 0.3 µM.

With `CC(C)Cn1cnc2c(N)ncnc21` [Compound 11], the Ki on human A2AAR [2] (ref Lambertucci et al. [22]) was above 100 µM.

For the molecule `CCn1c(C)nc2c(N)ncnc21` [Compound 18], at human A2AAR [4] (C8-methyl substituent), the “fold increase of binding affinity compared to compound 9” value came to 10 fold. On human A2AAR [4] (setting [7]), this molecule displayed a Ki of 0.218 ± 0.061 µM.

`CC(=O)Nc1nc2ccccc2s1` [Compound 32, N-(benzo[d]thiazol-2-yl)acetamide]: the inhibition constant (Ki) on human A1AR (setting [6]) was 11.2 ± 2.4 µM; at human A3AR it was 0.81 ± 0.17 µM; on human A2AAR [1], 79.1 µM and 79 µM.

Take `Nc1ncnc2ncnn12` [Compound 25, [1,2,4]triazolo[1,5-a][1,3,5]triazin-7-amine]: the inhibition at 300 µM is 27 ± 4% on human A1AR (setting [5]), 39 ± 2% at human A3AR and 34% on human A2AAR [1].

For `CSc1nc2ncnc(N)n2n1` [Compound 27], the results for the inhibition constant (Ki) on human A1AR, at human A3AR and on human A2AAR [1] were 97.3 ± 3.5 µM, 119 ± 42 µM and 20 µM, respectively.

Consider `CCCn1cnc2c(N)ncnc21` [Compound 13], for which, at human A2AAR [2] (ref Lambertucci et al. [22]), the inhibition constant (Ki) was 9.6 µM.

Turning to `Nc1ncnc2c1ncn2CCCO` [Compound 12], the Ki at human A2AAR [2] (ref Lambertucci et al. [22]) was 3.9 µM.

Regarding `Cn1c(Br)nc2c(N)ncnc21` [Compound 3], the “experimental improvement in binding free energy, compound 3 versus compound 2” value on human A2AAR [4] (C8-bromine addition) was found to be 2.4 kcal/mol. The “fold increase in affinity compared to compound 2” value at human A2AAR [4] (C8-bromine versus unsubstituted compound 2) came out at 58 fold. The “experimental improvement of binding affinity, compound 3 versus compound 4” value at human A2AAR [4] (addition of N9-methyl group) amounted to 2.0 kcal/mol.

In the case of `CCc1nc2c(N)cccn2n1` [Compound 30], the inhibition constant Ki is 97.2 ± 22.5 µM at human A1AR and 110 ± 17 µM at human A3AR. On human A2AAR [1], the inhibition at 300 µM worked out at 49%.

Consider `Nc1ncnc2c1nc(Br)n2C1CCCC1` [Compound 14], for which the Ki at human A2AAR [2] (ref Lambertucci et al. [22]) was 1.9 µM.

On to `Cn1cnc2ncnc(N)c21` [Compound 1], for which the Ki on human A2AAR [2] (ref Lambertucci et al. [22]) was above 100 µM.

On to `Cc1nc2c(N)cccn2n1` [Compound 29], for which the inhibition at 300 µM on human A1AR (setting [5]) was 38 ± 6%; on human A3AR, 44 ± 4%; at human A2AAR [1], 31%.

With `C=CCCn1cnc2c(N)ncnc21` [Compound 17], the Ki on human A2AAR [2] (ref Lambertucci et al. [22]) is 8.5 µM.

Molecule `CCn1c(O)nc2c(N)ncnc21` [Compound 20] had a Ki on human A2AAR [4] (setting [7]) of 1.14 ± 0.29 µM.

As to `CCn1c(OC(C)C)nc2c(N)ncnc21` [Compound 23], on human A2AAR [3], the “inhibition of A2AAR mediated cAMP production” value is “close to completely inhibit the agonist effect of 1 µM NECA”. For the same molecule, the Ki on human A2AAR [2] (ref Volpini et al. [23]) was above 100 µM; at human A2AAR [4] (compound retested in a radioligand binding assay at the A2AAR, this work), 0.095 µM. The “fold loss of binding affinity relative to compound 21” value at human A2AAR [4] (from published affinity of 23) is given as above 1000 fold.

Regarding `CC(=O)Nc1nc2c(C)cccc2s1` [Compound 33], the inhibition constant Ki at human A1AR (setting [6]) was determined as 17 ± 1.2 µM; at human A3AR, 2.3 ± 0.5 µM; at human A2AAR [1], 10.7 ± 2.3 µM. Further, the “fold increase of affinity” value at human A2AAR [1] is 7 fold.

For the molecule `Cc1nc2ncnc(N)n2n1` [Compound 26], the inhibition at 300 µM on human A1AR (setting [5]) came out at 44 ± 4%; at human A3AR it was 50 ± 4%. Further, the Ki on human A2AAR [1] was 78.5 µM.

Take `CCOc1nc2c(N)ncnc2n1CC` [Compound 22]: the “inhibition of A2AAR mediated cAMP production” value on human A2AAR [3] is reported as “close to completely inhibit the agonist effect of 1 µM NECA”. For the same molecule, the inhibition constant (Ki) on human A2AAR [2] (ref Volpini et al. [23]) is 0.046 µM.

One may read the inhibition as the share of the control response that was lost under treatment. In general, Ki refers to the dissociation constant of the complex between target and ligand, obtained from inhibition or displacement.

The values above are taken from publication PMC5526870, “Fragment optimization for GPCRs by molecular dynamics free energy calculations: Probing druggable subpockets of the A2A adenosine receptor binding site” (Scientific Reports, 2017).
